The source made the active and inactive calls.
How the values were obtained:
[1] = human group III sPLA2 inhibitors, dose response, biochemical, QFRET, IC50 (AID 743457);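 note: green fluorescence rise as the enzyme cleaves BODIPY PC-A2 in liposomes; potency for inhibition of the enzyme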
[2] = HEp-2 cell cytotoxicity, dose response, cytotoxicity control for RSV inhibitor project, HTS (AID 2410); type: functional; conditions: human respiratory syncytial virus
Phospholipase A2 = Phospholipase A2 (Homo sapiens, UniProt P04054); type: functional;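 note: confirmatory dose-response counterscreen on phospholipase A2, testing hits that came from an ultra-high-throughput screen for ATG4B inhibitors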
Sequence of Phospholipase A2 (P04054 whole entry): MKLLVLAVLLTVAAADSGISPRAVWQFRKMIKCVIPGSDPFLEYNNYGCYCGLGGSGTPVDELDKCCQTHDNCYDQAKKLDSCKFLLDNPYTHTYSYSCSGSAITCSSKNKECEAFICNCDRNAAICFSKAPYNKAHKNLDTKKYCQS

Cysteine protease ATG4B = molecular target: T1, Cysteine protease ATG4B (Homo sapiens, UniProt Q9Y4P1); type: functional;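 note: Fluorescence-based dose-response confirmation assay measuring inhibition of ATG4B activity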
T1 sequence (Q9Y4P1 whole entry): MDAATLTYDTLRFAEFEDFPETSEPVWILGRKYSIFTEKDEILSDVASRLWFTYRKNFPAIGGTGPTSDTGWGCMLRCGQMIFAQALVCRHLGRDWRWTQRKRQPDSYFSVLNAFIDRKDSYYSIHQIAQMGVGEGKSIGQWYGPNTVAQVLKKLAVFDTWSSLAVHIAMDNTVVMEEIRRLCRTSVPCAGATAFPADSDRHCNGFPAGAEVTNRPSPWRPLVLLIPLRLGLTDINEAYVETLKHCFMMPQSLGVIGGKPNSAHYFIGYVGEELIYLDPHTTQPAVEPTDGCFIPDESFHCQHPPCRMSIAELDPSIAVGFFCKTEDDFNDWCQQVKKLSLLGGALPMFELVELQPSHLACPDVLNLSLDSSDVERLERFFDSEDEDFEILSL

[3] = molecular target: T2, Calpain-2 catalytic subunit (Sus scrofa, UniProt P43367); test: pig calpain II inhibitor potency, dose response, biochemical, fluorogenic peptide substrate (AID 1420); type: functional
T2 sequence (P43367 whole entry): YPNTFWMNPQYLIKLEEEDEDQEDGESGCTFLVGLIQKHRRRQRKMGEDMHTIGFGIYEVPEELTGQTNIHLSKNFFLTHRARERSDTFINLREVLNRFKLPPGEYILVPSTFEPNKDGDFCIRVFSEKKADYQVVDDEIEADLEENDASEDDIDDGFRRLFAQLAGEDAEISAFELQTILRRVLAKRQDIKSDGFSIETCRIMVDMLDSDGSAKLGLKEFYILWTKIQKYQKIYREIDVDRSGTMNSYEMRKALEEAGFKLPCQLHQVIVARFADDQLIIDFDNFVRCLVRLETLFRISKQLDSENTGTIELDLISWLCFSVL

[4] = LGR2 antagonists, dose response, cell-based, HEK293, CRE-luciferase reporter, cherry pick, set 2 (AID 743343); type: functional;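 note: transfected cells were stimulated with diluted bursicon conditioned medium after compound addition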
[5] = MC4R antagonists, dose response, counter-screen for LGR2 antagonist project, cell-based, plate reader, cherry pick (AID 743444); type: functional;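 note: transfected HEK 293 cells stimulated with alpha-MSH peptide; potency of inhibitors of the alpha-MSH evoked signal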
[6] = HEK293 cell cytotoxicity, dose response, cytotoxicity control, plate reader, cherry-picked samples (AID 743446); type: functional, cell-based
[7] = molecular target: T3, Lysine-specific demethylase 4C (Homo sapiens, UniProt Q9H3R0); test: GASC-1 (JMJD2C) histone demethylase inhibitors, dose response, biochemical, DELFIA europium, cherry-picked samples (AID 488835); type: functional
T3 sequence (Q9H3R0 whole entry): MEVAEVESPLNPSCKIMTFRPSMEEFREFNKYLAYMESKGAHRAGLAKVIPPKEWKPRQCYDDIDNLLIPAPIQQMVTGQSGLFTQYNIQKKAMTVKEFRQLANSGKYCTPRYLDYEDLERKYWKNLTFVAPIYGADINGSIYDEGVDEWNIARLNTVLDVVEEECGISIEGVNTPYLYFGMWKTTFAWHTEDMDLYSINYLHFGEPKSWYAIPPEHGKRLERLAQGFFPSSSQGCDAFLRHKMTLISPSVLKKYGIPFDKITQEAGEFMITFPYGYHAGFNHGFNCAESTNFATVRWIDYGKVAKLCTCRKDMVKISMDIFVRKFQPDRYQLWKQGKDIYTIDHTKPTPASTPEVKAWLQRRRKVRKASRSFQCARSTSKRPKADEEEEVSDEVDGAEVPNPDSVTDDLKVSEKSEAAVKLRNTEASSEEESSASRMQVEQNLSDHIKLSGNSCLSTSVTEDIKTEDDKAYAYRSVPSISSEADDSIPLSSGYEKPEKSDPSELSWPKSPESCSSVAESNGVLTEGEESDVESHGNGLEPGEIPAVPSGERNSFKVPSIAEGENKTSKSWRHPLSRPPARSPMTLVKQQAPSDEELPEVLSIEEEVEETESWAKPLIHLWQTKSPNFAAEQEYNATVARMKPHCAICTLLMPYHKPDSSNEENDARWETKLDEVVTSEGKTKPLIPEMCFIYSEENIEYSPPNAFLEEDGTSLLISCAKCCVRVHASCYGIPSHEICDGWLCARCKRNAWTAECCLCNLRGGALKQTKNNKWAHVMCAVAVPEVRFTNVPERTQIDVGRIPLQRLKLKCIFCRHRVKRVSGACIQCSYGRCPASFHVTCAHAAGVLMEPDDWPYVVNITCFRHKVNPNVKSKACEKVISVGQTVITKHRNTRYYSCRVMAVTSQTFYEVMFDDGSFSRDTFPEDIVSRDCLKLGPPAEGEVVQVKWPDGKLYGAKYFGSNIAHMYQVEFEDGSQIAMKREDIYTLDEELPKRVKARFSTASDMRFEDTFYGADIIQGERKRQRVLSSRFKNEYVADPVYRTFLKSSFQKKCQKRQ

INS1 = test: beta cell apoptosis inhibitors, cytokine rescue, dose response, luminescence, retest (AID 449756); type: functional, cell-based; conditions: Rattus norvegicus;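 note: cell death triggered by IL-1 beta plus TNF-alpha plus IFN-gamma mixture; protective hits raise ATP signal compared with cytokine alone wells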
Protein RecA = molecular target: T4, Protein RecA (Mycobacterium tuberculosis, UniProt P9WHJ3); test: Fluorescence Cell-Free Homogeneous Dose Retest to Identify Inhibitors of RecA-Intein Splicing Activity. [Related pubchem assays (depositor defined):AID2097, AID2223, AID489010, AID492950]; type: functional
T4 sequence (P9WHJ3 whole entry): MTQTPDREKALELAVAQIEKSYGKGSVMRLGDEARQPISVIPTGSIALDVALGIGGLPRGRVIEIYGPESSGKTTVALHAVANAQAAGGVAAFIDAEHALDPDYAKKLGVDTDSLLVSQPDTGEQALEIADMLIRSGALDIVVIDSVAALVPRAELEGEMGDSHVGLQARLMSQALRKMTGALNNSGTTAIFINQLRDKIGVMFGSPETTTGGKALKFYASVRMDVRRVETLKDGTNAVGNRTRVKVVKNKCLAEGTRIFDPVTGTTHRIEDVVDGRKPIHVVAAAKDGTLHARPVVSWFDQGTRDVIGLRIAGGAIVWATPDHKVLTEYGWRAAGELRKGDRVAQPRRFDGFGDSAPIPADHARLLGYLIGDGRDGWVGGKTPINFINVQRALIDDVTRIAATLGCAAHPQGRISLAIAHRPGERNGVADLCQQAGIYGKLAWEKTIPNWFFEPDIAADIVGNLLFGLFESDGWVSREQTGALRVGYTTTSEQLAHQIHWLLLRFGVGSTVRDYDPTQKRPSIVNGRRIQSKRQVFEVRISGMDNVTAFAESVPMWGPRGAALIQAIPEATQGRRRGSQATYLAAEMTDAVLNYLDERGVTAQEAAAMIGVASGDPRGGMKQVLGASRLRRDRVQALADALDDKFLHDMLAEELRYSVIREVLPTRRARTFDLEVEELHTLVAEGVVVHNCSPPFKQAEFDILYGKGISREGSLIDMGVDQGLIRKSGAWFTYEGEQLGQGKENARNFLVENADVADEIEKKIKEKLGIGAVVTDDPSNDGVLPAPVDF

Genome polyprotein = Genome polyprotein (dengue virus type 2, UniProt P29990); test: Dengue-2 NS5 methyltransferase inhibitors, primary screen, biochemical, confirmation dose response (AID 588689); type: functional
Sequence of Genome polyprotein (P29990 2492-3391 limits assumed): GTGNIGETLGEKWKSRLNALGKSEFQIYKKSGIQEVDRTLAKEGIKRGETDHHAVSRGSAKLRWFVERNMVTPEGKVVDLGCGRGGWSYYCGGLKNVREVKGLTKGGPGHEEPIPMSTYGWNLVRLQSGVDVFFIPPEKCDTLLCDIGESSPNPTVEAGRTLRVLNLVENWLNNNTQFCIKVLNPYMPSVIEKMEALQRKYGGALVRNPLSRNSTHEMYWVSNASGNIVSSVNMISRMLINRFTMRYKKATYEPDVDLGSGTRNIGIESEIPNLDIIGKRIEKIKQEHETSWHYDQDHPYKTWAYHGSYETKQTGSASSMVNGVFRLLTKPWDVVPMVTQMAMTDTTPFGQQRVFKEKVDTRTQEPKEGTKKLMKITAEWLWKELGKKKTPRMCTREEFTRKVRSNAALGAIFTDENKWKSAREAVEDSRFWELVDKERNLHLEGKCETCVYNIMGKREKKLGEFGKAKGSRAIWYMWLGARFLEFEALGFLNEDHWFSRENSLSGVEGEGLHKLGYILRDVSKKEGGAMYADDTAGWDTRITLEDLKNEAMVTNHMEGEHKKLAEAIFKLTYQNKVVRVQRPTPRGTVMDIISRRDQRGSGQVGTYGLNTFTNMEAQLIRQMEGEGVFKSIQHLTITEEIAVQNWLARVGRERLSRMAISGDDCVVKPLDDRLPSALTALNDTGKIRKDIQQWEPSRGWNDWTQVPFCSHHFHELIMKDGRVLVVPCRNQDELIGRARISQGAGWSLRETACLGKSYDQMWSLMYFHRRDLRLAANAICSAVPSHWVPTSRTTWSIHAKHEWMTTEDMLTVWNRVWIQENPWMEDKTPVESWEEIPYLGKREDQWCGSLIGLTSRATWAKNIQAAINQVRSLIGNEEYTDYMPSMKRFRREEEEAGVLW

[8] = molecular target: T5, Replicative DNA helicase DnaB (Mycobacterium tuberculosis, UniProt P9WMR3); test: DnaB intein splicing inhibitors, dose response, biochemical, cell-free fluorescence (AID 449749); type: functional
T5 sequence (P9WMR3 whole entry): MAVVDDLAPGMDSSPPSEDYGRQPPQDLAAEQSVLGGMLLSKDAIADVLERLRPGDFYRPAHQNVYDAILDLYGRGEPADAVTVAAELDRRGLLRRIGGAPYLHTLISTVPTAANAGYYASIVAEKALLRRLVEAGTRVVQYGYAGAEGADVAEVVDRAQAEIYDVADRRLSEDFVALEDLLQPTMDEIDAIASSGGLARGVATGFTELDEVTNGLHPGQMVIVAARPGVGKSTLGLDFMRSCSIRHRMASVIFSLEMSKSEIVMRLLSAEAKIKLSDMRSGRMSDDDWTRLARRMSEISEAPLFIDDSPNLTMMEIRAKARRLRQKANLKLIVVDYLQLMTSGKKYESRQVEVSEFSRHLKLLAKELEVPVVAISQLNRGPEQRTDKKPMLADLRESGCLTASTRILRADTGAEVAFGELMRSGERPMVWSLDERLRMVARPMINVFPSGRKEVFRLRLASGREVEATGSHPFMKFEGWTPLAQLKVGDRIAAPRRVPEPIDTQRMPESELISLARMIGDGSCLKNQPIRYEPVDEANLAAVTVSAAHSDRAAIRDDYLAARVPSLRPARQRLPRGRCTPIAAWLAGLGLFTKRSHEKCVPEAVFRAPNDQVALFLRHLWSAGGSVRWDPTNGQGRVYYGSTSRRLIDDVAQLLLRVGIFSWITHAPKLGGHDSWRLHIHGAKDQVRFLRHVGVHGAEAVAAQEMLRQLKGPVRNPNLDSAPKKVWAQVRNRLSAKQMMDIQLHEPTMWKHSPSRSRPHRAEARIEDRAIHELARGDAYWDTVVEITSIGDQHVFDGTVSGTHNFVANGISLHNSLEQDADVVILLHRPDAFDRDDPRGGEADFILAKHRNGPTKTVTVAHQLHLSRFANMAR

Caspase-6 = molecular target: T6, Caspase-6 (Homo sapiens, UniProt P55212); test: human caspase-6 inhibitors, dose response, biochemical, VEID-R110 fluorescence, cherry-pick (AID 720632)
T6 sequence (P55212 whole entry): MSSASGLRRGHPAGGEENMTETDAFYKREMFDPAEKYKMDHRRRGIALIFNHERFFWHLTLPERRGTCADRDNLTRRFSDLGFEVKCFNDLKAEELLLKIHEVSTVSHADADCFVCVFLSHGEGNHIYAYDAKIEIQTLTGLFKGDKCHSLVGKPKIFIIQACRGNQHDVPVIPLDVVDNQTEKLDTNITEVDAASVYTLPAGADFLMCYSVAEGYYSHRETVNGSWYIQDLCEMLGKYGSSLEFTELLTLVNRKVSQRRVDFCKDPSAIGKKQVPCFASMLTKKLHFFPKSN

CC(C)(C)c1csc(NNC(=O)c2ccc(Cl)cc2)n1
IC50 [1]: > 122 µM (inactive)

CC(C)(C)c1nc(SCC(=O)c2ccccc2)c2ccccc2n1
CC50 [2]: 39.5 µM (active) | IC50 (Phospholipase A2): 10.1 µM (active) | IC50 (Cysteine protease ATG4B): 15.8 µM (active) | IC50 [3]: > 50 µM (not active)

CSc1nc2ccc(NC(=O)c3ccccn3)cc2s1
AC50 [4]: 4.16 µM (active) | AC50 [5]: 5.41 µM (active) | AC50 [6]: > 52 µM (inactive)

Sc1nnc(CCc2ccccc2)n1-c1ccc(Cl)cc1
IC50 [1]: > 122 µM (inactive)

CCC(C)N=C(S)N1CCN(C)CC1 (configuration not stated)
AC50 [7]: 26.5 µM (active)

CCOC(=O)c1c(C)n(C)c2ccc(O)c(S(=O)(=O)c3ccccc3)c12
AC50 [7]: 9.92 µM (active)

O=S(=O)(c1ccc2nc(Nc3ccccc3)ccc2c1)N1CCCCC1
AC50 (INS1): 12.2 µM (active) | AC50 [7]: 6.53 µM (active)

COc1ccc2nc3cccc(OC)c3nc2c1
EC50 (Protein RecA): 20.8 µM (active) | IC50 (Genome polyprotein): > 100 µM (active) | AC50 [8]: > 380 µM (inactive) | AC50 (Caspase-6): 23.1 µM (active)

From ChEMBL document CHEMBL1201862, “PubChem BioAssay data set” (2004)
